{"source": "paper PMC4987650", "about": "“Structural Investigation of Park’s Nucleotide on Bacterial Translocase MraY: Discovery of Unexpected MraY Inhibitors” (Scientific Reports, 2016)", "key": {"B. subtilis": {"test_system": "B. subtilis", "experiment": "Minimal inhibitory concentration, broth dilution", "type": "cell-based, B. subtilis (BCRC 10614)", "details": "Bacillus subtilis, standard broth dilution", "experimental": "(§1) Determination of Minimal Inhibition Concentration (MIC). B. subtilis (BCRC 10614) and S. aureus (BCRC 11863) was obtained from Bioresource Collection and Research Center (BCRC), Taiwan. The minimal inhibitory concentration of tested compounds was determined following the NCCLS standard. The experiments were conducted in 96-well microtiter plates using 16-point 2-fold dilutions in Muller-Hilton broth. Exponentially growing cells at 5 × 10^5 cells/mL were incubated with test compounds at various concentrations in a final volume of 100 μL. After an 18 to 24 h incubation at 37 °C, the minimal concentration of the compound that prevents at least 95% bacterial growth was determined as the MIC value of a given molecule.\n(§2) (1 picture or pasted object on this page, not shown here)"}, "MraYBS [1]": {"molecular_target": "T1, MraYBS (Bacillus subtilis, UniProt Q03521)", "T1 construct": "MBP; made in house", "T1 sequence (Q03521 1-324)": "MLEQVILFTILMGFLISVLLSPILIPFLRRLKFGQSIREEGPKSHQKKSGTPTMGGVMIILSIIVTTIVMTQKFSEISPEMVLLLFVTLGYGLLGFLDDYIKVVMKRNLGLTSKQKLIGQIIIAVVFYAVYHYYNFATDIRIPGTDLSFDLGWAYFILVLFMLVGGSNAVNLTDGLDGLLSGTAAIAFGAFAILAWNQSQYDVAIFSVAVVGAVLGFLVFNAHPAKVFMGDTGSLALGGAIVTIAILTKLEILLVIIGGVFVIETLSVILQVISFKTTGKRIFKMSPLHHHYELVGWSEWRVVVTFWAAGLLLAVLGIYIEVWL", "experiment": "MraY fluorescence enhancement assay (kinetics, inhibition)", "type": "biochemical", "details": "for Inhibition Mode: Lineweaver-Burk, 6 as substrate", "experimental": "(§3) Determine kinetic parameters by MraY fluorescence enhancement assay. The fluorescence enhancement assay was performed in 384-well plate as described by Bugg et al. with slight modifications.5 The reaction mixture containing MraYBS (10 μg/mL), C55P (200 μM) in 30 μL reaction buffer (30 mM Tris, 10 mM MgCl2, 10 mM NaCl, 0.1 mM Tween-20, 2.5% DMSO, pH 8.0) were pre-incubated at 37 °C for 15 min. The reactions were initiated by the addition of various concentrations of NBD-Park’s nucleotide 6 (0 to 160 μM). For inhibition study, a various concentrations of inhibitors were added before the addition of substrate 6. The continuous fluorescence increase over 60 min was monitored with λex 466 nm/λem 535 nm by fluorescence microplate reader (SpectraMax M5, Molecular Devices, LLC) at 37 °C. Linear regressions of increased fluorescent units (FLU) versus time (min) were used to calculate the initial velocities for each reaction. The kinetic parameters values (Ki, KM, and Vmax) were obtained by nonlinear regression analysis using the […] equation with the GraphPad Prism program (GraphPad Software, San"}, "MraYBS [2]": {"molecular_target": "T1, MraYBS", "experiment": "Biolayer interferometry-based (BLI) binding assay", "experimental": "MraYBS binding was measured in a biolayer interferometry-based binding assay on Octet Red96® instrument (ForteBio, Inc.). The biotinylation of MraYBS was performed with using EZ-Link® Sulfo-NHS-LC-LC-Biotin Kit (Thermo Fisher Scientific, Inc.). In general, MraYBS (1.7 mg/mL) in 50 μL reaction buffer (0.01 M HEPES pH 7.4, 0.15 M NaCl, 0.005% v/v Surfactant P20), was added by the sulfo-NHS-LC-LC-biotin reagent (1 mM, 1 μL). After incubating for 30 minutes at room temperature, the biotinylated-MraYBS was purified by a Zeba^TM Spin Desalting Columns, 7K MWCO (Thermo Fisher Scientific, Inc.), and the buffer was changed to the binding buffer (30 mM Tris, 10 mM MgCl2, 10 mM NaCl, 0.1 mM Tween-20, pH 8.0) during the purification. Comparing to the non-biotinylated-MraYBS, the biotinylated-MraYBS remains 62% activity measured by the HPLC-based MraY functional assay in 1 h reaction. The biotinylated MraYBS was then immobilized to Super Streptavidin (SSA) Octet tips (ForteBio, Inc.) for reaching a fixed signal of 3 nm. Before the assay starting, the MraYBS-labeled SSA sensors were pre-soaked in binding buffer for 30 min. The association of Park’s analogues with MraYBS were measured by incubating MraYBS-labeled SSA sensors in binding buffer containing various concentrations of samples in Octet Red system. The dissociation was monitored by moving the ligand biosenors from the analyte solution to binding buffer. The dissociation constants (KD) were obtained by nonlinear regression analysis using the specific binding model with the GraphPad Prism program (GraphPad Software, San Diego, CA)."}, "S. aureus": {"test_system": "S. aureus", "experiment": "Minimal inhibitory concentration, broth dilution", "type": "cell-based, S. aureus (BCRC 11863)", "details": "Staphylococcus aureus, standard broth dilution", "experimental": "as §1, §2"}, "[3]": {"test_system": "CC(=O)N[C@H]1[C@@H](OP(=O)(O)OP(=O)(O)OC[C@H]2O[C@@H](n3ccc(=O)[nH]c3=O)[C@H](O)[C@@H]2O)O[C@H](CO)[C@@H](O)[C@@H]1O[C@H](C)C(=O)N[C@@H](C)C(=O)N[C@H](CCC(=O)N[C@@H](CCCCNC(=O)CCCCCNc1ccc([N+](=O)[O-])c2nonc12)C(=O)N[C@H](C)C(=O)N[C@H](C)C(=O)O)C(=O)O", "experiment": "Fluorescent enhancement assay, mutant MraY", "type": "biochemical, Bacillus subtilis", "details": "pH 8.0; 37.0 °C", "experimental": "Site–directed mutagenesis of MraY. Site-directed mutagenesis of the B. subtilis MBP-tagged MraY enzyme was performed directly on the pMAL -BS-MraY-16 expression plasmid by using the “Quickchanged XL Site-Directed Mutagenesis Kit ’’ from stratagene and the oligonucleotides shown below. Mutations introduced in the mraY gene sequence were checked by DNA sequencing. […]\nMraY-T51A-R 5’-[…]-3’\nT53A MraY-T53A-F 5’-[…]-3’\nMraY-T53A-R 5’-[…]-3’\nK102A MraY-K102A-F 5’-[…]-3’\nMraY-K102A-R 5’-[…]-3’\nK226A Mray-K226A-F 5’-[…]-3’ […]\nF228A MraY-F228A-F 5’-[…]-3’\nMraY-F228A-R 5’-[…]-3’\nQ271A Mray-Q271A-F 5’-[…]-3’\nMray-Q271A-R 5’-[…]-3’\nR281A MraY-R281A-F 5’-[…]-3’\nMraY-R281A-R 5’-[…]-3’\nW297A MraY-W297A-F 5’-[…]-3’\nMraY-W297A-R 5’-[…]-3’\nas §3, §2"}, "MraYBS [4]": {"molecular_target": "T1, MraYBS", "experiment": "HPLC-based MraY functional assay (substrate activity)", "type": "biochemical", "details": "Park's nucleotides 10 μM, MraYBS 40 μg/mL, C55P 1 mM, 37 °C, 24 h", "experimental": "The purified MraY from Bacillus subtilis was prepared as described in our previous reports. […] […] The reaction mixtures were added by uridine (0.01 mg/mL) as the internal standard and heated to 100 °C to stop the transferring reaction. The samples were analyzed by RP-C18 HPLC with gradient elution of 0.25 M NH4HCO3(aq)/15% MeOH in water (100:0 to 0:100) at a flow rate of 1 mL/min over 45 min, and the peaks of substrates were monitored at UV 260 nm. For 6 and 11–17, the reaction mixture containing MraYBS (10 μg/mL), C55P (200 μM), 6-(7-Nitro-2,1,3-benzoxadiazol-4-ylamino)hexanoic acid (5 μM, internal standard) in 10 μL reaction buffer (30 mM Tris, 10 mM MgCl2, 10 mM NaCl, 0.1 mM Tween-20, 2.5% DMSO, pH 8.0) were pre-incubated at 37 °C for 15 min. […] The reaction mixtures were heated to 100 °C to stop the transferring reaction, and samples were analyzed by an anion-exchange column (SAX1, Supelco Co., 5 μm, 4.6 × 250 mm) with a linear gradient elution of NH4OAc (20 mM to 1 M in MeOH) at a flow rate of 1.0 mL/min over 30 min. The fluorescent substrates were monitored with λex 466 nm/λem 535 nm by fluorescence detector."}, "[5]": {"substrate": "CC(=O)N[C@H]1[C@@H](OP(=O)(O)OP(=O)(O)OC[C@H]2O[C@@H](n3ccc(=O)[nH]c3=O)[C@H](O)[C@@H]2O)O[C@H](CO)[C@@H](O)[C@@H]1O[C@H](C)C(=O)N[C@@H](C)C(=O)N[C@H](CCC(=O)N[C@@H](CCCCNC(=O)CCCCCNc1ccc([N+](=O)[O-])c2nonc12)C(=O)N[C@H](C)C(=O)N[C@H](C)C(=O)O)C(=O)O", "experiment": "MraY fluorescence enhancement assay (kinetics, inhibition)", "type": "biochemical, Bacillus subtilis", "details": "other: WT MraYBS, 6 as the substrate; pH 8.0; 37.0 °C", "experimental": "as §3"}}, "note": "“Also recorded” adds a separate entry of the source."}
{"molecule": "CC(=O)N[C@H]1[C@@H](OP(=O)(O)OP(=O)(O)OC[C@H]2O[C@@H](n3cc(NC(=O)Cc4ccc(C)cc4)c(=O)[nH]c3=O)[C@H](O)[C@@H]2O)O[C@H](CO)[C@@H](O)[C@@H]1O[C@H](C)C(=O)N[C@@H](C)C(=O)O", "note": "[Compound 20]", "values": [{"measurement": "MIC", "setting": "B. subtilis", "result": "> 200", "unit": "µM"}, {"measurement": "Ki", "setting": "MraYBS [1]", "result": "11 ± 3", "unit": "µM"}, {"measurement": "difference of inhibition abilities (Ki values) of 19 and 20", "setting": "MraYBS [1]", "result": 70, "unit": "fold"}, {"measurement": "Inhibition Mode", "setting": "MraYBS [1]", "result": "Competitive"}, {"measurement": "Kd", "setting": "MraYBS [2]", "result": "197 ± 47", "unit": "µM"}, {"measurement": "binding affinity fold stronger than that of 19", "setting": "MraYBS [2]; ratio of KD", "result": "approximately 1.5 fold"}, {"measurement": "MIC", "setting": "S. aureus", "result": "> 200", "unit": "µM"}]}
{"molecule": "MraYBS K226A mutant (Bacillus subtilis subsp. subtilis str. 168; K226A)", "values": [{"measurement": "Km", "setting": "[3]", "result": "24 ± 3", "unit": "µM"}]}
{"molecule": "MraYBS Q271A mutant (Bacillus subtilis subsp. subtilis str. 168; Q271A)", "values": [{"measurement": "Km", "setting": "[3]", "result": "72 ± 11", "unit": "µM"}]}
{"molecule": "MraYBS K102A mutant (Bacillus subtilis subsp. subtilis str. 168; K102A)", "values": [{"measurement": "Km", "setting": "[3]", "result": "49 ± 9", "unit": "µM"}]}
{"molecule": "MraYBS R281A mutant (Bacillus subtilis subsp. subtilis str. 168; R281A)", "values": [{"measurement": "Km", "setting": "[3]", "result": "20 ± 1", "unit": "µM"}]}
{"molecule": "MraYBS T51A mutant (Bacillus subtilis subsp. subtilis str. 168; T51A)", "values": [{"measurement": "Km", "setting": "[3]", "result": "24 ± 2", "unit": "µM"}]}
{"molecule": "MraYBS F228A mutant (Bacillus subtilis subsp. subtilis str. 168; F228A)", "values": [{"measurement": "Km", "setting": "[3]", "result": "18 ± 2", "unit": "µM"}]}
{"molecule": "MraYBS T53A mutant (Bacillus subtilis subsp. subtilis str. 168; T53A)", "values": [{"measurement": "Km", "setting": "[3]", "result": "70 ± 11", "unit": "µM"}]}
{"molecule": "MraYBS W297A mutant (Bacillus subtilis subsp. subtilis str. 168; W297A)", "values": [{"measurement": "Km", "setting": "[3]", "result": "63 ± 9", "unit": "µM"}]}
{"molecule": "CC(=O)N[C@H]1[C@@H](OP(=O)(O)OP(=O)(O)OC[C@H]2O[C@@H](n3cc(NC(=O)Cc4ccc(C)cc4)c(=O)[nH]c3=O)[C@H](O)[C@@H]2O)O[C@H](CO)[C@@H](O)[C@@H]1O[C@H](C)C(=O)N[C@@H](C)C(=O)N[C@H](CCC(=O)N[C@@H](CCCCN)C(=O)N[C@H](C)C(=O)N[C@H](C)C(=O)O)C(=O)O", "note": "[Compound 22]", "values": [{"measurement": "substrate under extreme reaction conditions", "setting": "MraYBS [4]", "result": "not be a substrate"}, {"measurement": "MIC", "setting": "B. subtilis", "result": "> 200", "unit": "µM"}, {"measurement": "Ki", "setting": "MraYBS [1]", "result": "4 ± 1", "unit": "µM"}, {"measurement": "potency relative to tunicamycins (Ki)", "setting": "MraYBS [1]", "result": "approximately two-fold; also recorded: roughly twice"}, {"measurement": "Inhibition Mode", "setting": "MraYBS [1]", "result": "Competitive"}, {"measurement": "Kd", "setting": "MraYBS [2]", "result": "86 ± 12", "unit": "µM"}, {"measurement": "binding affinity fold stronger than that of 20", "setting": "MraYBS [2]; ratio of KD", "result": "approximately 2.3 fold"}, {"measurement": "MIC", "setting": "S. aureus", "result": "> 200", "unit": "µM"}]}
{"molecule": "MraYBS (Bacillus subtilis subsp. subtilis str. 168) (protein, MBP; made in house) MLEQVILFTILMGFLISVLLSPILIPFLRRLKFGQSIREEGPKSHQKKSGTPTMGGVMIILSIIVTTIVMTQKFSEISPEMVLLLFVTLGYGLLGFLDDYIKVVMKRNLGLTSKQKLIGQIIIAVVFYAVYHYYNFATDIRIPGTDLSFDLGWAYFILVLFMLVGGSNAVNLTDGLDGLLSGTAAIAFGAFAILAWNQSQYDVAIFSVAVVGAVLGFLVFNAHPAKVFMGDTGSLALGGAIVTIAILTKLEILLVIIGGVFVIETLSVILQVISFKTTGKRIFKMSPLHHHYELVGWSEWRVVVTFWAAGLLLAVLGIYIEVWL", "values": [{"measurement": "Km", "setting": "[5]", "result": "18 ± 1", "unit": "µM"}]}
